# In article PMC10754118, “Lipophilic Nucleoside Triphosphate Prodrugs of Anti‐HIV Active Nucleoside Analogs as Potential Antiviral Compounds” (Advanced Science, 2023):
# Read-outs that look alike come from different tables or passages of the source.
# Columns and labels:
# [1] = system: pig liver esterase (PLE); assay: Hydrolysis with pig liver esterase (PLE); assay type: in vitro ADME; conditions: pig liver esterase (PLE) in PBS, PLE in PBS pH 7.3, 37 °C, read-out: PLE t 1/2 (converted)
# Excerpt: Next, TriPPPro‐compounds 10 and 20 were exposed to PLE in PBS (pH 7.3) and the half‐lives of TriPPPro‐compounds 10 and 20 are listed in Table 1. […] In contrast, the cleavage of the AB (C4) masking group in TriPPPro‐compounds 10by–hy and 10bz–hz was triggered by ester hydrolysis and yielded the corresponding γ‐alkylated nucleoside triphosphate derivatives 20 (Figure 3B,D) and 21 (Figures S17 and S18, Supporting Information), respectively. […] Moreover, a very small amount of NDPs was observed, probably due to a reaction involving a nucleophilic reaction at the γ‐phosphate or γ‐phosphonate moiety (pathways d and f, Scheme 5). […]
# (§1) Part 4. Chemical Hydrolysis of TriPPPro-compounds 10 and 20.
# Second prepare 1.9 mM hydrolysis
# Part 5. Hydrolysis of TriPPPro-compounds 10 and 20 with PLE .
# Second, 125 µL DMSO and 833 µL
# 62.5 µL of PLE solution in PBS (100
# mixture was stored in the freezer (- 30 °C).
# by analytical HPLC (HPLC Method).
# similar to that for the chemical hydrolysis studies. […]
# (§2) Then, aliquots of 50 µL human
# [2] = Chemical hydrolysis in phosphate buffer saline (PBS, pH 7.3); assay type: physicochemical; conditions: PBS pH 7.3, 37 °C, read-out: PBS pH 7.3 t 1/2 (converted)
# Protocol: as §1
# Second prepare 1.9 mM hydrolysis […]
# as §2
# [3] = in vitro; conditions: human, CEM/0 cells (wild-type CD4+ T-cells)
# Protocol: All TriPPPro‐compounds 10 and 20, as well as their parent nucleosides and the corresponding NTPs, were evaluated for their antiviral activity (expressed as EC50 values) against HIV‐1 (wild‐type CEM/0 cells) and HIV‐2 (wild‐type CEM/0 cells and thymidine kinase‐deficient (CEM/TK^−) cells) with concomitant determination of cytotoxicity in the same cell line (Table 3 ).
# [4] = in vitro; conditions: human
# Protocol: The hydrolysis properties of TriPPPro‐compounds 10 and 20 were evaluated in phosphate buffer saline (PBS, pH 7.3), pig liver esterase (PLE) or CEM/0 cell extracts. In both cases, hydrolysis products were analyzed by means of analytical RP18‐HPLC and the hydrolysis half‐lives (Table 1 , t1/2 ) of TriPPPro‐compounds 10 and 20 were calculated after complete consumption of the starting materials.
# The hydrolysis of TriPPPro‐compounds 10 and 20 was carried out with CEM/0 cell extracts as well. […]
# Part 6. Enzyme-Catalyzed Hydrolysis of TriPPPro-compounds 10 and 20 in CEM Cell […]
# First prepare 3.0 mM hydrolysis solutions of Tri PPPro-compounds 10 and 20 in DMSO and H2O: 21 µL stock solution (50 mM in DMSO) and 154 µL DMSO, and 175 µL Milli-Q water. Three-twelve different samples (20 µL 3.0 mM hydrolysis solutions) were prepared in 2 mL Eppendorf® vials. Then, aliquots of 50 µL human CEM cell extracts were added to these samples and the reaction was started. The samples were incubated at 37 °C in a thermomixer for different time periods. The reaction was stopped by addition of 150 µL MeOH and kept on ice for 5 min. After centrifugation at 14,000 rpm for 12 min, the supernatants were filtered (Chromafil RC-20/15 MS, 0.2 μm) and stored in liquid nitrogen. When testing, aliquots of 60 µL (injection volume) were analyzed by analytical HPLC (HPLC Method). The calculation of t1/2 was obtained using Origin again.
# (§3) Part 7. Hydrolysis of TriPPPro-compounds 10 and 20 in human plasma.
# µL 3.0 mM hydrolysis solutions) were prepared in 2 mL Eppendorf® vials.
# [5] = system: HIV‐2 [ROD]; assay: Anti-HIV activity, HIV-2 in wild-type CEM/0 cells; assay type: cell-based; conditions: Human immunodeficiency virus 2, CCRF-CEM, read-out: Antiviral activity CEM/0 HIV‐2 [ROD] EC50
# Protocol: (§4) Part 9. Anti-HIV activity assay.
# (§5) The produce was used as previously reported. 5 Inhibition of HIV-1(IIIB)- and HIV-2(ROD)-induced cytopathogenicity in wild-type CEM/0 and thymidine kinase-deficient CEM/TK– cell cultures was measured in […]
# (§6) containing appropriate dilutions of the test compounds. After 4−5 days of incubation at 37 °C in a CO2-controlled humidified atmosphere, CEM giant (syncytium) cell formation was examined microscopically. The […]
# (§7) giant cell formation by 50%.
# (§8) Part 10. Primer-extension assays. […]
# [6] = system: HIV‐2 [ROD)]; assay: Anti-HIV activity, HIV-2 in thymidine kinase-deficient CEM/TK^− cells; assay type: cell-based
# Protocol: as §4, §5, §6, §7, §8
# [7] = system: HIV‐1 [HE]; assay: Anti-HIV activity, HIV-1 in wild-type CEM/0 cells; assay type: cell-based; conditions: Human immunodeficiency virus 1, CCRF-CEM, read-out: Antiviral activity CEM/0 HIV‐1 [HE] EC50
# [8] = in vitro
# Protocol: First prepare 50 mM solutions of TriPPPro-compounds 10 and 20 in DMSO. […]
# First prepare 3.0 mM hydrolysis solutions of Tri PPPro-compounds 10 and 20 in DMSO and H2O: 21 µL stock solution (50 mM in DMSO) and 154 µL DMSO, and 175 µL Milli-Q water. Three-twelve different samples (20 […]
# The calculation of t1/2 was obtained using Origin again.
# as §3
# µL 3.0 mM hydrolysis solutions) were prepared in 2 mL Eppendorf® vials. Then, aliquots of 50 µL human Plasma (Heparin or Citrate) were added to these samples and the reaction was started. The samples were […]
# incubated at 37 °C in a thermomixer for different time periods. The reaction was stopped by addition of 150 µL MeOH and kept on ice for 5 min. After centrifugation at 14,000 rpm for 22 min, the supernatants were filtered (Chromafil RC-20/15 MS, 0.2 μm) and stored in liquid nitrogen. When testing, aliquots of 25 0r 30 µL (injection volume) were analyzed by analytical HPLC (HPLC Method). The calculation of t1/2 was obtained using Origin […]
# Part 8. Preparation of cell extracts and human plasma. […]
# [9] = wild-type CEM/0 cells, mean ±SD n = 2–3
# [10] = Human immunodeficiency virus 2, CEM-TK(-), thymidine kinase-deficient CEM/TK^− cells, mean ±SD n = 2–3; read-out: Antiviral activity CEM/TK^− HIV‐2 [ROD)] EC50
Compound,half-life at 0.45 mM [1] [h],half-life at 1.9 mM [2] [days],half-life at 0.86 mM [4] [h],"EC50 [5, 9] [nM]","EC50 [6, 10] [nM]","EC50 [7, 9] [nM]",CC50 [3] [nM],EC50 [5] [nM],"EC50 ([6]; Human immunodeficiency virus 2, CEM-TK(-), read-out: Antiviral activity CEM/TK^− HIV‐2 [ROD)] EC50) [nM]",EC50 [7] [nM],"Plasma (Citrate) t 1/2 ([8]; citrate-stabilized human plasma, 37 °C) [h]","Plasma (Heparin) t 1/2 ([8]; heparin-stabilized human plasma, 37 °C) [h]","t 1/2 in human plasma (over heparin and citrate plasma) ([8]; human plasma 37 °C, heparin and citrate taken together) [h]"
CCCCCCCCCCCCCCCCCCOP(=O)(OCc1ccc(OC(=O)CCCC)cc1)OP(=O)(O)OP(=O)(O)OC[C@H]1O[C@@H](n2cc(/C=C/Br)c(=O)[nH]c2=O)C[C@@H]1O (stereo partly shown) [10gy],0.3,25,,2870 ± 1720,11100 ± 1340,8570 ± 5020,52100,,,,,,
"CCCCCCCCCCCCCCCCCCOP(=O)(OCCCC)OP(=O)(O)OP(=O)(O)OC[C@@H]1O[C@H](n2cc(F)c(N)nc2=O)CS1 (stereo partly shown) [10cv, γ‐(C4;C18)‐FTCTP]",> 150,> 83.3,> 10,74 ± 27,3.2,39 ± 35,51200 ± 7700,,,,,,
CCCCCCCCCCCCCCCCCCOP(=O)(OCCCC)OP(=O)(O)OP(=O)(O)OC[C@H]1O[C@@H](n2cc(/C=C/Br)c(=O)[nH]c2=O)C[C@@H]1O (stereo partly shown) [10gv],> 150,> 83.3,> 10,5370 ± 690,36400 ± 34700,> 10000,48000 ± 4200,,,,,,
CCCCCCCCCCCCCCCCCCOP(=O)(OCCCC)OP(=O)(O)OP(=O)(O)OC[C@H]1O[C@@H](n2cc(Cl)c(=O)[nH]c2=O)C[C@@H]1F (stereo partly shown) [10dv],> 150,> 83.3,> 20,4810 ± 4610,> 20000,2280 ± 680,50100 ± 10200,,,,,,
CCCCCCCCCCCCCCCCCCP(=O)(OCc1ccc(OC(=O)CCCC)cc1)OP(=O)(O)OP(=O)(O)OC[C@H]1O[C@@H](n2cc(Cl)c(=O)[nH]c2=O)C[C@@H]1F (stereo partly shown) [10dz],1.3,27.9,> 10,510 ± 140,4660 ± 3420,2020 ± 800,54900,,,,,,
CCCCCCCCCCCCCCCCCCOP(=O)(OCc1ccc(OC(=O)CCCC)cc1)OP(=O)(O)OP(=O)(O)OC[C@@H]1C=C[C@H](n2cnc3c(NC4CC4)nc(N)nc32)C1 (stereo partly shown) [10hy],0.97,1.92,1.3,290 ± 160,210 ± 110,960 ± 490,> 100000,,,,,,
CCCCCCCCCCCCCCCCCCP(=O)(OCCCC)OP(=O)(O)OP(=O)(O)OC[C@H]1O[C@@H](n2cc(C)c(=O)[nH]c2=O)C[C@@H]1N=[N+]=[N-] (stereo partly shown) [10bx],> 150,> 62.5,> 20,,,,> 100000,31 ± 5,1190 ± 790,120 ± 88,,,
"Cc1cn([C@H]2C[C@H](N=[N+]=[N-])[C@@H](COP(=O)(O)O)O2)c(=O)[nH]c1=O [AZTMP, reference compound]",,,,,,,,,,,4.5,2.0,2.0 to 4.5
CCCCCCCCCCCCCCCCCCOP(=O)(OCc1ccc(OC(=O)CCCC)cc1)OP(=O)(O)OP(=O)(O)OC[C@H]1O[C@@H](n2cc(Cl)c(=O)[nH]c2=O)C[C@@H]1F (stereo partly shown) [10dy],0.19,18.5,2.9,1950 ± 860,2530 ± 1380,7320 ± 2280,52100,,,,,,
"CCCCCCCCCCCCCCCCCCOP(=O)(OCc1ccc(OC(=O)CCCC)cc1)OP(=O)(O)OP(=O)(O)OC[C@@H]1O[C@H](n2cc(F)c(N)nc2=O)CS1 (stereo partly shown) [10cy, γ‐(AB‐C4;alkyl‐C18)‐FTCTP]",0.24,10.5,3.4,180 ± 150,62 ± 59,140 ± 65,51900,,,,,,

# Second part, led by results:
half-life at 0.45 mM [1] [h],half-life at 1.9 mM [2] [days],half-life at 0.86 mM [4] [h],"EC50 [5, 9] [nM]","EC50 [6, 10] [nM]","EC50 [7, 9] [nM]",Compound,CC50 [3] [nM],EC50 [5] [nM],"EC50 ([6]; Human immunodeficiency virus 2, CEM-TK(-), read-out: Antiviral activity CEM/TK^− HIV‐2 [ROD)] EC50) [nM]",EC50 [7] [nM],"Plasma (Citrate) t 1/2 ([8]; citrate-stabilized human plasma, 37 °C) [h]","Plasma (Heparin) t 1/2 ([8]; heparin-stabilized human plasma, 37 °C) [h]","t 1/2 in human plasma (over heparin and citrate plasma) ([8]; human plasma 37 °C, heparin and citrate taken together) [h]"
> 150,> 83.3,> 20,2240 ± 650,62100,3140 ± 2930,CCCCCCCCCCCCCCCCCCOP(=O)(O)OP(=O)(O)OP(=O)(O)OC[C@H]1O[C@@H](n2cc(Cl)c(=O)[nH]c2=O)C[C@@H]1F [20d],> 100000,,,,,,
> 150,> 83.3,> 30,220 ± 20,51 ± 69,350 ± 250,"CCCCCCCCCCCCCCCCCCOP(=O)(O)OP(=O)(O)OP(=O)(O)OC[C@@H]1O[C@H](n2cc(F)c(N)nc2=O)CS1 [20c, γ‐C18‐FTCTP]",63400 ± 13700,,,,,,
> 150,> 83.3,> 20,10 ± 1,1270 ± 540,19 ± 19,"CCCCCCCCCCCCCCCCCCOP(=O)(O)OP(=O)(O)OP(=O)(O)OC[C@H]1O[C@@H](n2cc(C)c(=O)[nH]c2=O)C[C@@H]1F [20f, γ‐C18‐FLTTP]",> 100000,,,,,,
> 150,> 83.3,> 20,> 10000,15700 ± 980,> 10000,CCCCCCCCCCCCCCCCCCOP(=O)(O)OP(=O)(O)OP(=O)(O)OC[C@H]1O[C@@H](n2cc(/C=C/Br)c(=O)[nH]c2=O)C[C@@H]1O [20g],> 100000,,,,,,
> 150,> 83.3,> 20,390 ± 300,3560 ± 1880,92 ± 82,"CCCCCCCCCCCCCCCCCCOP(=O)(O)OP(=O)(O)OP(=O)(O)OC[C@H]1O[C@@H](n2ccc(=O)[nH]c2=O)C[C@@H]1F [20e, γ‐C18‐FddUTP]",63700 ± 13600,,,,,,
